In brackets after ≈: the same amount, converted by molar mass. Activity calls are given as the source filed them. The rule behind the calls is not given here.
Columns and labels:
Staphylococcus aureus [1] = test: Antibacterial activity against methicillin-sensitive Staphylococcus aureus ATCC 29213 measured after 24 hrs by turbidimetric assay; type: functional
Staphylococcus aureus [2] = test: Antibacterial activity against methicillin-resistant Staphylococcus aureus Mu 50 measured after 24 hrs by turbidimetric assay; type: functional
Escherichia coli = test: Antibacterial activity against Escherichia coli ATCC 25922 measured after 24 hrs by turbidimetric assay; type: functional
[3] = Cytotoxicity against mouse BEND3 cells assessed as reduction in cell viability at 64 ug/ml measured after 24 hrs by CCK-8 assay; type: toxicity, cell-based; conditions: bend3, 24 h, dose 64 µg/ml
Staphylococcus aureus [4] = test: Synergistic antibacterial activity against methicillin-resistant Staphylococcus aureus Mu 50 at 64 to 128 ug/ml measured at 1 hr interval for 24 hrs in presence of oxacillin; type: functional, organism-based; conditions: dose 64-128 µg/ml
Staphylococcus aureus [5] = test: Bactericidal activity against methicillin-resistant Staphylococcus aureus Mu 50 assessed as reduction in colony formation measured after 2 to 24 hrs by time-kill assay; type: functional, organism-based; conditions: dose 8-32 µg/ml, time 2-24 hrs
[6] = Cytotoxicity against human intestinal epithelial cells assessed as reduction in cell viability at 64 ug/ml measured after 24 hrs by CCK-8 assay; type: toxicity, cell-based; conditions: dose 64 µg/ml
Staphylococcus aureus [7] = test: Antibacterial activity against methicillin-sensitive Staphylococcus aureus ATCC 29213 at 4 to 32 ug/ml measured at 1 hr interval for 24 hrs; type: functional, organism-based; conditions: dose 4-32 µg/ml
Staphylococcus aureus [8] = test: Bactericidal activity against methicillin-resistant Staphylococcus aureus Mu 50 assessed as reduction in colony formation at 8 to 32 ug/ml measured after 3 hrs by time-kill assay; type: functional, organism-based; conditions: dose 8-32 µg/ml
Staphylococcus aureus [9] = test: Antibacterial activity against methicillin-resistant Staphylococcus aureus Mu 50 at 4 to 32 ug/ml measured at 1 hr interval for 24 hrs; type: functional, organism-based; conditions: dose 4-32 µg/ml
[10] = target: T1, MecA (Staphylococcus aureus) (UniProt Q7DHH4); test: Inhibition of PBP2a in methicillin-resistant Staphylococcus aureus Mu 50 assessed as blurred cell wall boundaries at 16 ug/ml measured after 12 hrs by transmission electron microscopy; conditions: dose 16.0 µg/ml
T1 sequence (whole entry): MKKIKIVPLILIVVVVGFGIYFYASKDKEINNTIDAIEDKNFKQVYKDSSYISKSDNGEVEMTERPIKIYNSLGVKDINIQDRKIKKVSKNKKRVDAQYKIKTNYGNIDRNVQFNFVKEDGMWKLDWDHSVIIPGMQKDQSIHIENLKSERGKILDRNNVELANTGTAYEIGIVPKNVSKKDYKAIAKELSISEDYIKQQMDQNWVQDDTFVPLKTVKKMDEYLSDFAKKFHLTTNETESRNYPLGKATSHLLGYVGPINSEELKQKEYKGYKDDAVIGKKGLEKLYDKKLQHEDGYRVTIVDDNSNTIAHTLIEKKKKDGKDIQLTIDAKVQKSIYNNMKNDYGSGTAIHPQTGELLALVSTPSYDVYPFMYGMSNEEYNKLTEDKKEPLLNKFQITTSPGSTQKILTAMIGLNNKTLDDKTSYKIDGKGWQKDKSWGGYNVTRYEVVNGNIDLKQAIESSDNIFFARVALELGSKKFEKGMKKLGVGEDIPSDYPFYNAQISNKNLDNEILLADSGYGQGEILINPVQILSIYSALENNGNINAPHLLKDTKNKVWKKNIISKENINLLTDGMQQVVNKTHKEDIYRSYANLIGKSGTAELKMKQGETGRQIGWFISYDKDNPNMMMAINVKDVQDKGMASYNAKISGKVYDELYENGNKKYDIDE

Staphylococcus aureus [11] = test: Resistance development in methicillin-resistant Staphylococcus aureus Mu 50 assessed as MIC after 9 passages by broth dilution method; type: functional
[12] = target: T1, MecA (Staphylococcus aureus); test: Inhibition of PBP2a in methicillin-resistant Staphylococcus aureus Mu 50 assessed as abnormal cell division at 16 ug/ml measured after 12 hrs by transmission electron microscopy; conditions: dose 16.0 µg/ml
Staphylococcus aureus [13] = test: Synergistic antibacterial activity against methicillin-resistant Staphylococcus aureus Mu 50 at 16 to 32 ug/ml measured at 1 hr interval for 24 hrs in presence of oxacillin; type: functional, organism-based; conditions: dose 16-32 µg/ml
Staphylococcus aureus [14] = test: Resistance development in methicillin-resistant Staphylococcus aureus Mu 50 assessed as fold change in MIC after and before 6 passages by broth dilution method; type: functional
[15] = target: T1, MecA (Staphylococcus aureus); test: Inhibition of PBP2a in methicillin-resistant Staphylococcus aureus Mu 50 assessed as disruption of bacterial cell wall integrity by measuring release of intracellular contents at 64 ug/ml measured after 12 hrs by transmission electron microscopy; type: cell-based; conditions: dose 64.0 µg/ml

Compound	MIC (Staphylococcus aureus [1]) [µg/mL]	MIC (Staphylococcus aureus [2]) [µg/mL]	MIC (Escherichia coli) [µg/mL]	further results
Nc1ncnc2c1ncn2[C@@H]1O[C@H](CSCc2cccc(C(=O)O)c2)[C@@H](O)[C@H]1O	> 128	> 128	> 128	
Nc1ncnc2c1c(C#Cc1ccccc1)cn2[C@@H]1O[C@H](CSCc2cccc(C(=O)O)c2)[C@@H](O)[C@H]1O	> 128	> 128	> 128	
Nc1ncnc2c1c(C#Cc1cccc(F)c1)cn2[C@@H]1O[C@H](CSCc2cccc(C(=O)O)c2)[C@@H](O)[C@H]1O	> 128	> 128	> 128	
Nc1ncnc2c1c(C#Cc1cccnc1)cn2[C@@H]1O[C@H](CSCc2cccc(C(=O)O)c2)[C@@H](O)[C@H]1O	> 128	> 128	> 128	
Nc1ncnc2c1c(C#Cc1ccc3sccc3c1)cn2[C@@H]1O[C@H](CSCc2cccc(C(=O)O)c2)[C@@H](O)[C@H]1O	> 128	16 (≈ 27.9 µM)	> 128	Activity [3]: Non-toxic; Activity (Staphylococcus aureus [4]): Not active; Decreased The Activity Of Oxacillin; Activity (Staphylococcus aureus [5]): Dose-dependent-effect; Activity [6]: Non-toxic; Activity (Staphylococcus aureus [7]): inactive; Activity (Staphylococcus aureus [8]): Active; Significant Reduction Observed; Activity (Staphylococcus aureus [9]): Active; Significant Inhibition Observed; inhibition [10]: Active; Significantly Inhibits The Cross-Linking Of Peptidoglycan Substrates By Pbp2A; MIC (Staphylococcus aureus [11]): 64 µg/mL (≈ 112 µM); inhibition [12]: Active; Significantly Inhibits The Cross-Linking Of Peptidoglycan Substrates By Pbp2A; Activity (Staphylococcus aureus [13]): Active; Enhanced The Inhibitory Effect Of Oxacillin
N#Cc1cccc(CSC[C@H]2O[C@@H](n3cnc4c(N)ncnc43)[C@H](O)[C@@H]2O)c1	> 128	> 128	> 128	
Nc1ncnc2c1ncn2[C@@H]1O[C@H](CSCc2cc(C(=O)O)no2)[C@@H](O)[C@H]1O	> 128	> 128	> 128	
Nc1ncnc2c1c(C#Cc1ccc3ccccc3c1)cn2[C@@H]1O[C@H](CSCc2cccc(C(=O)O)c2)[C@@H](O)[C@H]1O	> 128	32 (≈ 56.5 µM)	> 128	
Nc1ncnc2c1ncn2[C@@H]1O[C@H](CSCc2cccc(C(=O)O)n2)[C@@H](O)[C@H]1O	> 128	> 128	> 128	
Nc1ncnc2c1ncn2[C@@H]1O[C@H](CSCc2cncc(C(=O)O)n2)[C@@H](O)[C@H]1O	> 128	> 128	> 128	
CCO/N=C(\C(=O)N[C@@H]1C(=O)N2C(C(=O)[O-])=C(Sc3nc(-c4cc[n+](C)cc4)cs3)CS[C@H]12)c1nsc(NP(=O)(O)O)n1 [CEFTAROLINE FOSAMIL]		32 (≈ 46.7 µM)		fold change (FC) (Staphylococcus aureus [14]): 2; MIC (Staphylococcus aureus [11]): 128 µg/mL (≈ 187 µM)
Nc1ncnc2c1c(C#Cc1cccc([N+](=O)[O-])c1)cn2[C@@H]1O[C@H](CSCc2cccc(C(=O)O)c2)[C@@H](O)[C@H]1O	> 128	> 128	> 128	
Cc1onc(-c2ccccc2)c1C(=O)N[C@@H]1C(=O)N2[C@@H]1SC(C)(C)[C@@H]2C(=O)O [OXACILLIN]		64 (≈ 159 µM)		inhibition [15]: Active

— ChEMBL document CHEMBL6109093, “Designing novel nucleoside inhibitors targeting the allosteric site of PBP2a: A strategic approach to overcome resistance in MRSA” (Bioorg Med Chem, 2025)
